Experimental findings from patent US8969552B2, “Arylsulfonylmethyl or arylsulfonamide substituted aromatic compounds suitable for treating disorders that respond to modulation of the dopamine D3 receptor” (AbbVie Deutschland GmbH & Co. KG, priority 2004, dated 2015) are described below.

Experiment [1] addresses T1, human dopamine D3 receptors (Homo sapiens, UniProt P35462).
T1 construct: expressed in transfected cells; membranes
Nature of the experiment: Dopamine D3 receptor binding, [125I]-iodosulpride displacement. Particulars: for Ki: membranes of HEK-293 cells stably expressing human D3 receptor, 0.1 nM [125I]-iodosulpride, 25° C., 60 minutes; for Ki(D2)*/Ki(D3)*: selectivity ratio of receptor binding constants D2 versus D3. As to the method: (§1) The substance to be tested was either dissolved in methanol/Chremophor® (BASF-AG) or in dimethyl sulfoxide and then diluted with water to the desired concentration.
(§2) Each assay mixture was run in triplicate.
The incubation buffer contained 50 mM tris, 120 mM NaCl, 5 mM KCl, 2 mM CaCl2, 2 mM MgCl2 and 0.1% bovine serum albumin, 10 μM quinolone and 0.1% ascorbic acid (prepared fresh daily). The buffer was adjusted to pH 7.4 with HCl.
(§3) Measurement and Analysis:
(§4) After having been incubated at 25° C. for 60 minutes, the assay mixtures were filtered through a Whatman GF/B glass fiber filter under vacuum using a cell collecting device. The filters were transferred to scintillation viols using a filter transfer system. After 4 ml of Ultima Gold® (Packard) have been added, the samples were shaken for one hour and the radioactivity was then counted in a Beta-Counter (Packard, Tricarb 2000 or 2200CA). The cpm values were converted into dpm using a standard quench series and the program belonging to the instrument.
(§5) The inhibition curves were analyzed by means of iterative nonlinear regression analysis using the Statistical Analysis System (SAS) which is similar to the “LIGAND” program described by Munson and Rodbard.
(§6) The results of the receptro binding studies are expressed as receptor binding constants Ki(D2) and Ki(D3), respectively, as herein before described, and given in table 2.

In experiment [2] the target is T2, human dopamine D2L receptors (long isoform) (Homo sapiens, UniProt P14416).
T2 construct: expressed in transfected cells; membranes
Nature of the experiment: Dopamine D2L receptor binding, [125I] iodospiperone displacement. To be noted: membranes of HEK-293 cells stably expressing human D2L receptor; 0.01 nM [125I] iodospiperone; 25° C., 60 minutes; read-out: Ki(D2)*. As for the experimental part: as §1, §2
The incubation buffer contained 50 mM tris, 120 mM NaCl, 5 mM KCl, 2 mM CaCl2, 2 mM MgCl2 and 0.1% bovine serum albumin. The buffer was adjusted to pH 7.4 with HCl.
as §3, §4, §5, §6

Molecules are shown by their SMILES.

T2 sequence (P14416 whole entry, canonical isoform): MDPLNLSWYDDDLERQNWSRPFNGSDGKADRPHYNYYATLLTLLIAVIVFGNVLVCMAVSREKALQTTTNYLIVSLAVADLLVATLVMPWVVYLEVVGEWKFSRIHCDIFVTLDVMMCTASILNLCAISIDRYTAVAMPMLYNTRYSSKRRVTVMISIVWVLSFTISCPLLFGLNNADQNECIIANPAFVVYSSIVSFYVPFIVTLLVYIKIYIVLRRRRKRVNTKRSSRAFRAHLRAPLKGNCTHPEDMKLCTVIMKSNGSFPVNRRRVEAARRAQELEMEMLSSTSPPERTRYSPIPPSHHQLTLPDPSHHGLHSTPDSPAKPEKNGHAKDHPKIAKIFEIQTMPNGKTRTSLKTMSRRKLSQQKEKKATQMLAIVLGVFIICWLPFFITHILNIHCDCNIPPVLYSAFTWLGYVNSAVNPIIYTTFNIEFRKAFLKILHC
T1 sequence (P35462 whole entry): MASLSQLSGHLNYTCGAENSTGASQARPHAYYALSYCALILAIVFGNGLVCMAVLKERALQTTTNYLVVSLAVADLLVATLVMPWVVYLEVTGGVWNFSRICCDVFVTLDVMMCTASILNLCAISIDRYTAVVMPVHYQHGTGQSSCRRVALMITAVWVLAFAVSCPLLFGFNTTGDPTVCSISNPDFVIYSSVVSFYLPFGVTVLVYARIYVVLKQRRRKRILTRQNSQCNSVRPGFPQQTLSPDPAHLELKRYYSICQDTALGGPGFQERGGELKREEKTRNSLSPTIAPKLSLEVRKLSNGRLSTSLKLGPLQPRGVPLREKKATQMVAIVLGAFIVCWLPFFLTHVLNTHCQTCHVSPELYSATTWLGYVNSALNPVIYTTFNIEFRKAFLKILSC

As usually defined, the Ki is a measure of affinity in units of concentration, obtained from inhibition or displacement. Regarding `CCCN[C@H]1CCc2cc(NS(=O)(=O)c3ccc([C@H](C)C(F)(F)F)cc3)ccc2C1` [Example 42, N—((S)-6-Propylamino-5,6,7,8-tetrahydro-naphthalen-2-yl)-4-((S)-2,2,2-trifluoro-1-methylethyl)-benzenesulfonamide], in experiment [1], the affinity, expressed as Ki, was 1.95 nM and the “Ki(D2)*/Ki(D3)*” value is given as 263. For the same compound, in experiment [2], the Ki stood at 514 nM.
As for `CCCN[C@H]1CCc2cc(NS(=O)(=O)c3ccc(C(C)C(F)F)cc3)ccc2C1.Cl` (stereo partly drawn) [Example 77, 4-(2,2-Difluoro-1-methyl-ethyl)-N—((S)-6-propylamino-5,6,7,8-tetrahydro-naphthalen-2-yl)benzenesulfonamide, hydrochloride], in experiment [1], the Ki worked out at 1.65 nM and the “Ki(D2)*/Ki(D3)*” value is 304. Moreover, the Ki in experiment [2] is 501 nM.
With `C=CCN[C@H]1CCc2cc(NS(=O)(=O)c3ccc(C(C)C)cc3)ccc2C1.Cl` [Example 7, N—((S)-6-Allylamino-5,6,7,8-tetrahydro-naphthalen-2-yl)-4-isopropyl-benzenesulfonamide, hydrochloride], in experiment [1], the Ki was found to be 1.97 nM and the “Ki(D2)*/Ki(D3)*” value is reported as 77. For the same compound, the Ki in experiment [2] was found to be 152 nM.
Regarding `C=CCN1CCC[C@H]2c3ccc(NS(=O)(=O)c4ccc(C(C)C)cc4)cc3CC[C@@H]21` [Example 19, N-((4aS,10bS)-4-Allyl-1,2,3,4,4a,5,6,10b-octahydro-benzo[f]quinolin-8-yl)-4-isopropylbenzenesulfonamide], in experiment [1], the Ki stood at 2.5 nM and the “Ki(D2)*/Ki(D3)*” value is given as 21. For the same compound, the Ki in experiment [2] is 51 nM.
`CCCN[C@H]1CCc2cc(NS(=O)(=O)c3ccc(C(C)C(F)(F)F)cc3)ccc2C1` (mixture of isomers) [Example 40, N—((S)-6-Propylamino-5,6,7,8-tetrahydro-naphthalen-2-yl)-4-(2,2,2-trifluoro-1-methyl-ethyl)benzenesulfonamide-racemate]: in experiment [1], the affinity, expressed as Ki, was 1.4 nM and the “Ki(D2)*/Ki(D3)*” value was 221. The Ki in experiment [2] came to 309 nM.
The like results for `C=CCN1CCC[C@H]2c3cc(NS(=O)(=O)c4ccc(C(C)C)cc4)ccc3CC[C@@H]21` [Example 20, N-((4aS,10bS)-4-Allyl-1,2,3,4,4a,5,6,10b-octahydro-benzo[f]quinolin-9-yl)-4-isopropylbenzenesulfonamide] were, in that order, 7.5 nM, 45 and 339 nM.
On to `CCCN[C@H]1CCc2cc(NS(=O)(=O)c3ccc(N4CC[C@@H](F)C4)cc3)ccc2C1` [Example 44, 4-((R)-3-Fluoro-pyrrolidin-1-yl)-N—((S)-6-propylamino-5,6,7,8-tetrahydro-naphthalen-2-yl)benzenesulfonamide], for which, in experiment [1], the Ki was found to be 0.62 nM and the “Ki(D2)*/Ki(D3)*” value was found to be 416. Moreover, in experiment [2], the Ki amounted to 258 nM.
Take `C=CCN[C@H]1CCc2cc(N(C)S(=O)(=O)c3ccc(C(C)C)cc3)ccc2C1` [Example 9, N—((S)-6-Allylamino-5,6,7,8-tetrahydro-naphthalen-2-yl)-4-isopropyl-N-methylbenzenesulfonamide]: in experiment [1], the Ki was determined as 15.3 nM and the “Ki(D2)*/Ki(D3)*” value stood at 27. Moreover, in experiment [2], the Ki was determined as 416 nM.
Turning to `CCCN1CCC[C@@H]2Cc3cc(NS(=O)(=O)c4ccc(C(C)C)cc4)ccc3C[C@H]21` (relative stereo) [Example 23, trans-4-Isopropyl-N-(1-propyl-1,2,3,4,4a,5,10,10a-octahydro-benzo[g]quinolin-7-yl)benzenesulfonamide], the Ki in experiment [1] worked out at 2.3 nM; in experiment [2] it was 116 nM. Moreover, in experiment [1], the “Ki(D2)*/Ki(D3)*” value came out at 50.
For the compound `CCCN(CCC)[C@@H]1CCc2cc(NS(=O)(=O)c3ccc(C(C)C)cc3)ccc2C1.Cl` [Example 29, N—((R)-6-Dipropylamino-5,6,7,8-tetrahydro-naphthalen-2-yl)-4-isopropyl-benzenesulfonamide, hydrochloride], in experiment [1], the Ki is 0.37 nM and the “Ki(D2)*/Ki(D3)*” value was 4. Also, the Ki in experiment [2] amounted to 1.39 nM.
As for `CCCN[C@@H]1CCc2cc(NS(=O)(=O)c3ccc(C(C)C)cc3)ccc2C1` [Example 3, 4-Isopropyl-N—((R)-6-propylamino-5,6,7,8-tetrahydro-naphthalen-2-yl)-benzenesulfonamide], the values for the Ki in experiment [1] and in experiment [2] were 0.34 nM and 10.3 nM, respectively. In experiment [1], the “Ki(D2)*/Ki(D3)*” value came out at 30.
For the compound `CCCN[C@H]1CCc2cc(N(C)S(=O)(=O)c3ccc(C(C)C)cc3)ccc2C1` [Example 10, 4-Isopropyl-N-methyl-N—((S)-6-propylamino-5,6,7,8-tetrahydro-naphthalen-2-yl)benzenesulfonamide], in experiment [1], the Ki is 8.2 nM and the “Ki(D2)*/Ki(D3)*” value is 29. Besides, the Ki in experiment [2] is 238 nM.
In the case of `CCCN[C@H]1CCc2cc(NS(=O)(=O)c3ccc(C(C)C)cc3)ccc2C1.Cl` [Example 8, 4-Isopropyl-N—((S)-6-propylamino-5,6,7,8-tetrahydro-naphthalen-2-yl)-benzenesulfonamide, hydrochloride], in experiment [1], the affinity, expressed as Ki, was 0.5 nM and the “Ki(D2)*/Ki(D3)*” value is reported as 102. The Ki in experiment [2] is 50.6 nM.
Take `CCCNC1COc2cc(NS(=O)(=O)c3ccc(C(C)C)cc3)cnc2C1` (stereo not drawn) [Example 35, 4-Isopropyl-N-(3-propylamino-3,4-dihydro-2H-pyrano[3,2-b]pyridin-7-yl)benzenesulfonamide]: in experiment [1], the Ki turned out to be 30.4 nM and the “Ki(D2)*/Ki(D3)*” value was found to be 406. Further, the Ki in experiment [2] was found to be 12300 nM.
As to `CCCN[C@H]1CCc2cc(NS(=O)(=O)c3ccc(N4CCOCC4)cc3)ccc2C1` [Example 45, 4-Morpholin-4-yl-N—((S)-6-propylamino-5,6,7,8-tetrahydro-naphthalen-2-yl)benzenesulfonamide], in experiment [1], the Ki amounted to 13.9 nM and the “Ki(D2)*/Ki(D3)*” value came out at 94. In experiment [2], the Ki turned out to be 1310 nM.
For `CCCNC1CCc2cc(NS(=O)(=O)c3ccc(C(C)C)cc3)cnc2C1` (stereo not drawn) [Example 15, 4-Isopropyl-N-(7-propylamino-5,6,7,8-tetrahydro-quinolin-3-yl)-benzenesulfonamide], in experiment [1], the Ki amounted to 11.3 nM and the “Ki(D2)*/Ki(D3)*” value was found to be 42. Further, the Ki in experiment [2] amounted to 476 nM.
